Measurements: patent US10590463B2, “Diagnostic methods and kits for monitoring response to chemotherapy in ovarian cancer” (RNA Disgnostics Inc., priority 2011, dated 2020)

Tested on: A2780 cells
Experiment: chemotherapy-dependent RNA degradation (RNA integrity number, Agilent 2100 Bioanalyzer) in cultured A2780 cells
Format: cell-based
Settings: for concentration at which reductions in RNA integrity are induced: range tested 2.5-40 μM; for change in RNA integrity at low concentrations: low (micromolar) concentrations; for effect on RNA integrity (in words): up to 40 μM
Protocol: Before starting RNA isolation, an appropriate volume of buffer RLT is prepared by adding β-mercaptoethanol to buffer RLT in a ratio of 10 μl for every 1 ml of solution. RLT buffer is stable for a month after addition of β-ME. […] This precipitate was redissolved by warming at 30° C. and then placing the solution at room temperature. Aliquots of 0.5 ml RLT buffer (with β-ME) were placed in Eppendorf microfuge tubes prior to RNA isolation procedures. […] The resulting lysate is passed at least 5 times through a 20-gauge needle (0.9 mm diameter) fitted to an RNase-free syringe to shear associated genomic DNA. The sheared lysate is then transferred to a microcentrifuge tube and centrifuged at maximum speed for 3 minutes, with transfer of the supernatant to a new tube. One volume of 70% ethanol (500 μl) is added to the homogenized lysate, and the sample mixed well by pipetting. If some volume of the lysate is lost during homogenization, the volume of ethanol is adjusted accordingly. […] Up to 700 μl of the sample is then applied to an RNeasy mini column placed in a 2 ml collection tube, including any precipitate that may have formed. […] Any remaining lysate is applied to the column and the column centrifuged as described above, discarding the flow-through. Buffer RW1 (700 μl) is then added to the RNeasy column in a 2 ml microfuge tube to wash the column free of unbound lysate components. […] The RNeasy column is placed into a new 2 ml microfuge tube and 500 μl of RPE buffer is added to wash the column. After centrifugation for 30 seconds at ≥8000×g (≥10,000 rpm) to remove the wash buffer, two identical washes of the column in RPE buffer are performed. This buffer is supplied as a concentrate, and must be diluted with 4 volumes of ethanol (100%) prior to use. Any residual liquid associated with the column is then removed by centrifugation at full speed for 1 minute. […] After leaving the column at room temperature for 1 minute, the column is centrifuged for 1 min at full speed to collect the eluted RNA. To obtain a higher concentration and complete elution of the RNA from column, a second elution step was performed by reapplying the eluate to the column and centrifuging a second time.
This document includes a detailed description on setting up the assay equipment, preparing and running the RNA Nanochips, and analysis of the capillary electrophoretic data using the Agilent […] Bioanalyzer and its associated “Expert software”. It is important that all “Essential Measurement Practices” described in the document are followed. RNA 6000 “Nanochips” and associated solutions are obtained in RNA 6000 Nano kits that can be purchased from Agilent Technologies (Mississauga, ON). RNA Nanochips are manufactured by Caliper Life Sciences (Hopkinton, Mass.). The sizes of the rRNAs, and the concentration of RNA in a given sample are determined by extrapolation from a standard curve of reference RNAs provided in the RNA 6000 NANO kits. All data from the Bioanalyzer runs were stored both as PDF and XAD files. The Agilent 2100 Expert software was used to obtain all data from the capillary electrophoresis runs, including the RNA quality and quantity for a given RNA preparation.

[1] = 40 μM (each drug), same experiment, FIG. 2
[2] = 40 μM (each drug), same experiment, from 9.40±0.12 units, FIG. 2
[3] = A2780 cells, 40 μM, 24 h, FIG. 1

Row | Structure (SMILES) | concentration at which reductions in RNA integrity are induced (A2780 cells, 24 h) [µM] | reduction in RNA integrity [3] | effect on RNA integrity (in words) (A2780 cells) | further results
1 | O=c1[nH]cc(F)c(=O)[nH]1 [5-FI-uracil, 5-fluorouracil] | ≥ 20 | – | – | –
2 | N.N.[Cl][Pt][Cl] [cisplatin] | – | – | – | effect on RNA integrity at highest concentration (A2780 cells, 40 μM, 24 h): substantial and statistically significant reductions; change in RNA integrity at low concentrations (A2780 cells, 24 h): no effect
3 | CC(=O)O[C@@]12CO[C@@H]1C[C@H](O)[C@@]1(C)C(=O)[C@H](O)C3=C(C)[C@@H](OC(=O)[C@H](O)[C@@H](NC(=O)OC(C)(C)C)c4ccccc4)C[C@@](O)([C@@H](OC(=O)c4ccccc4)[C@H]21)C3(C)C [docetaxel] | – | 18.8% | minimal reduction | RNA integrity after treatment [1]: 8.67±0.42 units; reduction in RNA integrity [2]: 7.8%; change in RNA integrity at low concentrations (A2780 cells, 24 h): little change
4 | COc1cccc2c1C(=O)c1c(O)c3c(c(O)c1C2=O)C[C@@](O)(C(=O)CO)C[C@@H]3O[C@H]1C[C@H](N)[C@H](O)[C@H](C)O1 [doxorubicin] | 2.5 | up to 20.0% | significant reductions | –
5 | COc1cccc2c1C(=O)c1c(O)c3c(c(O)c1C2=O)C[C@@](O)(C(=O)CO)C[C@@H]3O[C@H]1C[C@H](N)[C@@H](O)[C@H](C)O1 [epirubicin] | 2.5 | – | – | RNA integrity after treatment [1]: 5.87±1.74 units; reduction in RNA integrity [2]: 37.7%; dose-dependent reduction in RNA quality (up to) (A2780 cells, 2.5-40 μM, 24 h, FIG. 1): up to 29.2%
6 | COc1cc([C@@H]2c3cc4c(cc3[C@@H](O[C@@H]3O[C@@H]5CO[C@@H](C)O[C@H]5[C@H](O)[C@H]3O)[C@H]3COC(=O)[C@H]23)OCO4)cc(OC)c1O [etoposide] | – | – | unable to affect RNA integrity | effect on RNA integrity at highest concentration (A2780 cells, 40 μM, 24 h): no effect
7 | CC(=O)O[C@H]1C(=O)[C@@]2(C)[C@H]([C@H](OC(=O)c3ccccc3)[C@]3(O)C[C@H](OC(=O)[C@H](O)[C@@H](NC(=O)c4ccccc4)c4ccccc4)C(C)=C1C3(C)C)[C@]1(OC(C)=O)CO[C@@H]1C[C@@H]2O [paclitaxel] | – | 75.8% | greatest reduction | reduction in RNA integrity (A2780 cells, 20 μM, 24 h, FIG. 1): 52.5%
8 | CC[C@]1(O)C[C@@H]2CN(CCc3c([nH]c4ccccc34)[C@@](C(=O)OC)(c3cc4c(cc3OC)N(C)[C@H]3[C@@](O)(C(=O)OC)[C@H](OC(C)=O)[C@]5(CC)C=CCN6CC[C@]43[C@@H]65)C2)C1 [vinblastine] | 2.5 | – | – | reduction of RNA integrity (A2780 cells, lowest concentration tested 2.5 μM): almost two
